2 compounds from paper PMC9477735, “Phosphorylation of muramyl peptides by NAGK is required for NOD2 activation” (Nature, 2022) can be followed below.

The target of test [1] is T1, N-acetylglucosamine kinase (NAGK) (Homo sapiens, UniProt Q9UJ70).
T1 construct: full-length human NAGK, recombinant from E. coli, His-MBP tag removed
As to the kind of experiment: in vitro kinase assay with [γ-32P]ATP and TLC. In kind it is biochemical.

In test [2] the target is T1, N-acetylglucosamine kinase (NAGK). As to the kind of experiment: in vitro kinase assay with [γ-32P]ATP and TLC; LC-MS/MS; NMR of product. In kind it is biochemical.

The structures appear in SMILES notation.

T1 sequence (Q9UJ70 2-344): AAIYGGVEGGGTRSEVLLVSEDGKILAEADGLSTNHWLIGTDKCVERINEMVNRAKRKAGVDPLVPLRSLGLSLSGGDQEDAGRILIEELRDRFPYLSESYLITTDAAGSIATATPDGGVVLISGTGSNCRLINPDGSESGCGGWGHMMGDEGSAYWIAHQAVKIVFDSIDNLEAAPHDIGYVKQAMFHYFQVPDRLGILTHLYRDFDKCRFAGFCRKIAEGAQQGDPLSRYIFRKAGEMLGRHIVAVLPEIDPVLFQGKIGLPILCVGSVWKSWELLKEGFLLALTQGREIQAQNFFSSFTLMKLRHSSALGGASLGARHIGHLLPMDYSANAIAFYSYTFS

Take `CC(=O)N[C@H]1C(O)O[C@H](CO)[C@@H](O)[C@@H]1O` (some centres unmarked) [GlcNAc, N-acetylglucosamine]: the “in vitro kinase assay with [γ-32P]ATP and TLC” value in test [1] is on record as “to similar levels as its bona fide substrate GlcNAc (Fig. 3b)”. `CC(=O)N[C@H]1C(O)O[C@H](CO)[C@@H](O)[C@@H]1O[C@H](C)C(=O)N[C@@H](C)C(=O)N[C@H](CCC(=O)O)C(N)=O` (some centres unmarked) [MDP]: in test [2], the “in vitro kinase assay with [γ-32P]ATP and TLC; LC-MS/MS; NMR of product” value is “These assays revealed that NAGK readily phosphorylated MDP and the related molecule N-acetylmuramic acid (MurNAc)”.
